Experimental data reported in BigSolDB 2.1.

CS(N)(=O)=O
Details	solubility (mole fraction)
in ethanol, 283.13 K	0.0265
in ethanol, 288.18 K	0.0338
in ethanol, 293.14 K	0.0412
in ethanol, 298.17 K	0.0484
in ethanol, 302.16 K	0.0614
in ethanol, 308.16 K	0.0792
in ethanol, 313.06 K	0.1
in ethanol, 318.07 K	0.132
in ethanol, 323.16 K	0.181
in ethyl acetate, 283.26 K	0.0297
in ethyl acetate, 288.16 K	0.0329
in ethyl acetate, 293.2 K	0.0373
in ethyl acetate, 298.1 K	0.0419
in ethyl acetate, 303.18 K	0.0458
in ethyl acetate, 308.24 K	0.0507
in ethyl acetate, 313.17 K	0.0565
in ethyl acetate, 318.07 K	0.0627
in ethyl acetate, 323.16 K	0.0684
in isobutanol, 283.2 K	0.0117
in isobutanol, 288.14 K	0.0145
in isobutanol, 293.06 K	0.0174
in isobutanol, 298.36 K	0.0216
in isobutanol, 303.13 K	0.026
in isobutanol, 308.14 K	0.0309
in isobutanol, 313.04 K	0.0384
in isobutanol, 318.16 K	0.0481
in isobutanol, 323.04 K	0.0592
in isopentanol, 283.16 K	0.00502
in isopentanol, 288.14 K	0.00747
in isopentanol, 293.16 K	0.0108
in isopentanol, 298.17 K	0.0138
in isopentanol, 303.05 K	0.018
in isopentanol, 308.06 K	0.0228
in isopentanol, 313.15 K	0.0288
in isopropanol, 283.06 K	0.0139
in isopropanol, 288.17 K	0.0178
in isopropanol, 293.14 K	0.0221
in isopropanol, 298.08 K	0.0277
in isopropanol, 303.06 K	0.0333
in isopropanol, 308.14 K	0.044
in isopropanol, 313.14 K	0.0556
in isopropanol, 318.16 K	0.0704
in isopropanol, 323.04 K	0.0917
in isopropyl acetate, 283.27 K	0.0099
in isopropyl acetate, 288.14 K	0.0112
in isopropyl acetate, 293.16 K	0.0127
in isopropyl acetate, 298.34 K	0.0148
in isopropyl acetate, 303.13 K	0.0169
in isopropyl acetate, 308.1 K	0.0195
in isopropyl acetate, 313.3 K	0.0219
in isopropyl acetate, 318.22 K	0.0251
in isopropyl acetate, 323.27 K	0.0294
in methanol, 283.27 K	0.0738
in methanol, 288.1 K	0.0884
in methanol, 293.2 K	0.108
in methanol, 298 K	0.133
in methanol, 303.3 K	0.163
in methanol, 308.36 K	0.2
in methanol, 313.13 K	0.243
in methanol, 318.1 K	0.286
in methanol, 322.2 K	0.33
in methyl propionate, 283.27 K	0.0251
in methyl propionate, 288.27 K	0.026
in methyl propionate, 293.06 K	0.0291
in methyl propionate, 298.14 K	0.0324
in methyl propionate, 303.36 K	0.036
in n-butanol, 283.1 K	0.0117
in n-butanol, 288.2 K	0.0131
in n-butanol, 293.18 K	0.015
in n-butanol, 298.16 K	0.0172
in n-butanol, 303.26 K	0.0218
in n-butanol, 308.06 K	0.027
in n-pentanol, 283.14 K	0.00546
in n-pentanol, 288.13 K	0.00713
in n-pentanol, 293.14 K	0.00998
in n-pentanol, 298.12 K	0.0156
in n-pentanol, 303.06 K	0.0219
in n-propanol, 283.16 K	0.0125
in n-propanol, 288.14 K	0.0153
in n-propanol, 293.08 K	0.0185
in n-propanol, 298.14 K	0.0213
in n-propanol, 303.12 K	0.0296
in n-propanol, 308.24 K	0.0375
in n-propanol, 313.18 K	0.0471
in n-propanol, 318.24 K	0.0608
in n-propanol, 323.24 K	0.08
in n-propyl acetate, 283.07 K	0.0114
in n-propyl acetate, 288.13 K	0.0125
in n-propyl acetate, 293.26 K	0.0141
in n-propyl acetate, 298.04 K	0.0163
in n-propyl acetate, 303.14 K	0.0185
in n-propyl acetate, 308.04 K	0.0214
in n-propyl acetate, 313 K	0.0243
in n-propyl acetate, 318.07 K	0.028
in n-propyl acetate, 323.17 K	0.0322
in sec-butanol, 283.3 K	0.00628
in sec-butanol, 288.14 K	0.0112
in sec-butanol, 293.13 K	0.0166
in sec-butanol, 298.06 K	0.0224
in sec-butanol, 303.1 K	0.0284
in sec-butanol, 308.26 K	0.036
in sec-butanol, 313.06 K	0.0459
